Assays:
[1] = tested on: rat; conditions: cited from earlier work
[2] = tested on: rat model of Parkinson's disease; conditions: cited from earlier work
[3] = tested on: rat brain membrane system; format: in vivo, Wistar rats; conditions: 20 mg/kg intraperitoneal
Experimental: N-oleoyl-dopamine was administered to Wistar rats at a dose of 20 mg/kg. After 1, 2, 3 or 24 hours the rat was sacrificed and the brain was resected. From the tissue, the whole lipid fraction, containing all lipids of the brain and the membrane fraction of the rat brain were obtained. Total lipids were obtained by homogenization of the brain in a mixture of chloroform and methanol 2:1 followed by an extraction of the water-soluble fractions and evaporation of the solvent. The membrane phase was obtained according to Xu et al. (Xu, 1998) and extracted with chloroform to obtain membrane lipids. All obtained samples were analyzed by the thin layer chromatography TLC on silica gel plates 60 using a mixture of chloroform and methanol 95:5 as the mobile phase and N-oleoyl-dopamine as the standard. The Retention Factor (Rf) for the N-oleoyl-dopamine standard was equal to 0.24-0.26. At the same level (the same Rf = […]) there were bands corresponding to N-oleoyl-dopamine in the biological samples, that is after systemic N-oleoyl-dopamine injection, but not in the control samples obtained with no N-oleoyl-dopamine injection.

[4] = in vitro conditions; cited from earlier work
[5] = target: TRPV1 vanilloid receptors (Homo sapiens, UniProt Q8NER1); conditions: mentioned in the literature; cited from earlier work
TRPV1 vanilloid receptors, sequence (Q8NER1 whole entry): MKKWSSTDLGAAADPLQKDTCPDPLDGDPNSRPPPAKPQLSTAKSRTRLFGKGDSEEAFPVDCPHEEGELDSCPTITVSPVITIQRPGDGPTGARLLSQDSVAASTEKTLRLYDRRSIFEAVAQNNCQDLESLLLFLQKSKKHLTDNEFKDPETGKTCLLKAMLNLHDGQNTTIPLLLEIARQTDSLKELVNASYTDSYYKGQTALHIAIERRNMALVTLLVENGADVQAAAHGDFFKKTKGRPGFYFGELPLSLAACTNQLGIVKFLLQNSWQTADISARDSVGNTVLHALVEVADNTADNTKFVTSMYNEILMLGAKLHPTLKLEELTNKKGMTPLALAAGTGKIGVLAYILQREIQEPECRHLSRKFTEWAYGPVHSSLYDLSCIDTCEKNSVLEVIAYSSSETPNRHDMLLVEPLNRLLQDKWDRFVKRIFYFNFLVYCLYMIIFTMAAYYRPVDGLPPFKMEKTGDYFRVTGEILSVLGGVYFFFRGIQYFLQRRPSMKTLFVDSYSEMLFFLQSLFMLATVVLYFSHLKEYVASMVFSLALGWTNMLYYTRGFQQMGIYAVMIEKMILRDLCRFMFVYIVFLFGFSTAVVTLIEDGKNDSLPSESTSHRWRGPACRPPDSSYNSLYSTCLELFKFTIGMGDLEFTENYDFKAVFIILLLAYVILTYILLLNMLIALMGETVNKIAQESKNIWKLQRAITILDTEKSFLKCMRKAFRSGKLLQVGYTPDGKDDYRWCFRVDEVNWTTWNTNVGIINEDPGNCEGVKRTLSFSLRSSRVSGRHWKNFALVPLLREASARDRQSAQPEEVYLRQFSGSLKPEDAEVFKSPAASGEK

[6] = tested on: brain; conditions: after injection into the carotid artery; cited from earlier work
[7] = tested on: anesthetized, paralyzed and artificially ventilated Wistar rats; experiment: Respiratory response to hypoxia in the anesthetized rat (integrated phrenic nerve activity); format: in vivo; conditions: for peak respiratory response in relation to the starting-point values: substance alone: N-oleoyl-dopamine 20 mg/kg, haloperidol 3 mg/kg, domperidone 0.3 mg/kg; for effect on respiration in the second inhibitory phase of the response to hypoxia: substance alone, 14% and 11 % hypoxia
Experimental: The study was performed in anesthetized, paralyzed and artificially ventilated Wistar rats. During the experiments, the integrated activity of the phrenic nerve was recorded. This activity reflects the frequency and tidal volume; their product represents the index of minute lung ventilation. The experimental protocol consisted of control recordings for two levels of the hypoxic stimulus: 14% and 11 % O2 in N2. Afterwards, N-oleoyl-dopamine in a dose of 20 mg/kg was given and the recordings were repeated. Additionally, experiments with two dopamine receptor antagonists were performed: first, with the penetrating through the blood-brain barrier D2 dopamine receptor antagonist haloperidol and second, with the non-penetrating through the blood-brain-barrier domperidone. In these studies, after the control recordings, haloperidol (in a dose of 3 mg/kg) or domperidone (in a dose of 0.3 mg/kg) were administered and the recordings repeated. Then, N-oleoyl-dopamine was given and the recordings were repeated.

[8] = tested on: awake Wistar rats; experiment: Respiration in normoxia and hypoxia in the awake rat (plethysmographic chamber); format: in vivo; conditions: for Minute lung ventilation (peak respiratory response): after haloperidol 0.9 mg/kg i.p. and N-oleoyl-dopamine 40 mg/kg i.p.
Experimental: The study was performed in awake Wistar rats in a computerized plethysmographic chamber for small rodents. Respiratory frequency, tidal volume and pulmonary ventilation were measured. The experimental protocol included recordings in normoxia (breathing with atmospheric air), two levels of hypoxic stimulus (8% and 12% O2 in N2), intraperitoneal (i.p.) administration of N-oleoyl-dopamine (in a dose of 40 mg/kg) and repeated recordings for both normoxic and hypoxic states. Additionally, further experiments with the dopamine receptor antagonist haloperidol (in a dose of 0.9 mg/kg, i.p.) were performed. In those experiments, haloperidol was administered prior to N-oleoyl-dopamine and the recordings according the above-mentioned protocol were repeated. […]

[9] = tested on: animal model of Parkinson's disease; experiment: Muscle rigidity in reserpine + α-methyl-tyrosine model of Parkinson's disease (EMG); format: in vivo, rats; conditions: 10 mg/kg
Experimental: Symptoms of the Parkinson's disease, particularly muscle rigidity during flexion and extension movements in the ankle joint, were induced with reserpine (2.5 mg/kg, i.p.) and α-methyl-tyrosine (α-MT, 250 mg/kg, i.p.) administered at a 16-h interval. Afterwards, 3'-O-methyl-N-oleoyl-dopamine (O-Me-OLDA) was administered at a dose of 10 mg/kg and the muscular tone was measured using electromyographic (EMG) techniques. The control groups consisted of a) only vehiculum-treated animals in which no symptoms of Parkinson's disease were induced (control), b) animals who received only 3'-O-methyl-N-oleoyl-dopamine (O-Me-OLDA) and c) animals in which symptoms of Parkinson's disease were induced (reserpine + α-MT), but no other treatment was introduced.

[10] = N-oleoyl-dopamine 20 mg/kg given after domperidone 0.3 mg/kg
[11] = N-oleoyl-dopamine 20 mg/kg given after haloperidol 3 mg/kg
[12] = 8% hypoxia, 40 mg/kg i.p., awake rat
[13] = 8% hypoxia, after 40 mg/kg i.p., awake rat
[14] = normoxia, 40 mg/kg i.p., awake rat

CCCCCCCC/C=C\CCCCCCCC(=O)NCCc1ccc(O)c(O)c1 [N-oleoyl-dopamine]
locomotor activity [1]: increases the locomotor activity
muscle rigidity [2]: diminishes muscle rigidity
penetration into the membrane system of the brain ([3]; brain taken after 1, 2, 3 or 24 hours): penetrates into the membrane system of the rat brain
time staying unchanged bound to the brain membrane system ([3]; rat brain): at least 24 hours
stability [4]: highly stable
action towards TRPV1 vanilloid receptors [5]: agonistic action
penetration into the brain [6]: ability to penetrate into the brain
peak respiratory response in relation to the starting-point values ([7]; 11 % hypoxia (O2 in N2)): 38 ±9%
peak respiratory response in relation to the starting-point values ([7]; 14% hypoxia (O2 in N2)): 18 ±10%
effect on respiration in the inhibitory phase [7, 10]: still diminished the respiration
effect on response to hypoxia in the stimulatory phase [7, 10]: did not change the response to hypoxia
effect on respiratory response in the first stimulatory phase [7, 11]: did not restore the respiratory response
effect on respiratory response in the second inhibitory phase [7, 11]: still diminished it
effect on respiration in the second inhibitory phase of the response to hypoxia [7]: reduced the respiratory response to hypoxia
reduction of peak respiratory response [8, 12]: 41%
peak respiratory response [8, 13]: 1338.3 ±49.5 ml/min/kg body weight
Minute lung ventilation (peak respiratory response) ([8]; 8% hypoxia): 1947.3 ±66.5 ml/min/kg body weight
reduction of peak respiratory response ([8]; 12% hypoxia, 40 mg/kg i.p., awake rat): 36%
peak respiratory response ([8]; 12% hypoxia, after 40 mg/kg i.p., awake rat): 856.6 ±73.7 ml/min/kg body weight
Minute lung ventilation (peak respiratory response) ([8]; 12% hypoxia): 1484.0 ±92.3 ml/min/kg body weight
decrease in respiratory frequency [8, 14]: 23%
decrease of resting ventilation during breathing with atmospheric oxygen [8, 14]: 33%

CCCCCCCC/C=C\CCCCCCCC(=O)NCCc1ccc(O)c(OC)c1 [3'-O-methyl-N-oleoyl-dopamine]
action towards TRPV1 vanilloid receptors [5]: agonistic action
muscle rigidity ([9]; rats treated with reserpine 2.5 mg/kg i.p. + α-MT 250 mg/kg i.p.): abolished muscle rigidity
muscle tone in comparison to control recordings ([9]; substance alone, no Parkinson symptoms induced): did not change the muscle tone
muscle tone (force needed for flexion and extension of the ankle joint) ([9]; three-fold elevated level of muscle tone by reserpine, Fig.1): decreases nearly down to the control level
reduction of peak respiratory response [8, 12]: 19%
peak respiratory response [8, 13]: 1939 ±255 ml/min/kg body weight
decrease of resting ventilation during breathing with atmospheric oxygen [8, 14]: 23%
resting ventilation during breathing with atmospheric oxygen ([8]; normoxia, after 40 mg/kg i.p., awake rat): 779.7 ±148.7 ml/min/kg body weight

O=C(CCCN1CCC(O)(c2ccc(Cl)cc2)CC1)c1ccc(F)cc1 [haloperidol, reference compound]
peak respiratory response in relation to the starting-point values ([7]; 11 % hypoxia (O2 in N2)): 22 ±5%
peak respiratory response in relation to the starting-point values ([7]; 14% hypoxia (O2 in N2)): 18 ±3%
effect on respiration in the second inhibitory phase of the response to hypoxia [7]: diminished the respiration

O=c1[nH]c2ccccc2n1CCCN1CCC(n2c(=O)[nH]c3cc(Cl)ccc32)CC1 [domperidone, reference compound]
peak respiratory response in relation to the starting-point values ([7]; 11 % hypoxia (O2 in N2)): 26 ±5%
peak respiratory response in relation to the starting-point values ([7]; 14% hypoxia (O2 in N2)): 21 ±5%
